In patent US20250011809A1, “VIRAL VECTOR PRODUCTION” (Cell Therapy Catapult Limited, priority 2021, published 2025):
Values joined by “and” are separate entries in the source; they are usually repeats but may differ in a detail not shown here. Equal values may be shown once. Ends that are not written are not given here.

What was measured:
Assay type in all cases: cell-based, human
[1] = tested on: HEK293 cells; experiment: Viability of adherent HEK293 cells after transfection with GFP reporter plasmid (Example 1); details: 3 days after transfection with 50 ng GFP plasmid; RALA N:P10, PEIpro 3:1; FIG. 1
Description: HEK293 cells were seeded at a density of 1×10^5 cells per well on 24 well plates. 24 hrs later, cells were transfected with 50 ng of plasmid encoding a GFP reporter gene, either complexed with RALA (SEQ ID NO: 1) at N:P10 (14.5 μg of RALA is complexed per 1 μg of DNA) or using PEIpro at a 3:1 ratio. The cells were stained to assess cell viability after 3 days.

[2] = HEK293-F cell count and viability by flow cytometry after transfection in suspension culture (Example 5); design: viability at 24 h / viability at 48 h / viability at 72 h: concentration or dose not given beside the values; details: human, HEK293-F cells in suspension culture (shake flasks); for viability at 24 h: 24 h post-transf; for viability at 48 h: 48 h post-transf; for viability at 72 h: 72 h post-transf
Description: (§1) HEK293-F cells were seeded into shake flasks with a 20 mL serum-free BalanCD medium at working volume at a cell concentration of 1×10^6/mL for lentiviral production and 2×10^6/mL for AAV production. Transfection with the plasmids for AAV1, AAV2, LV (two experimental replicates, LV1 and LV2) were carried out using PEI-Pro or RALA peptides as set out in Table 8 below.
(§2) The HEK293-F cell counts were determined using flow cytometry immediately prior to transfection, and then at 24 hrs, 48 hrs and 72 hrs post transfection.

[3] = tested on: HEK293-F cells; experiment: as above; design: viability at 24 h / viability at 48 h / viability at 72 h: concentration or dose not given beside the values
Description: as §1, §2

[4] = AAV1 plasmids, 24 h post-transf
[5] = AAV1 plasmids, 48 h post-transf
[6] = AAV1 plasmids, 72 h post-transf
[7] = AAV2 plasmids, 24 h post-transf
[8] = AAV2 plasmids, 48 h post-transf

WEARLARALARALARHLARALARALRACEA [RALA]
viability of adherent HEK293 cells [1]: significantly greater | viability at 24 h ([2]; AAV1 plasmids): 90% | viability at 48 h ([2]; AAV1 plasmids): 86.1% | viability at 72 h ([2]; AAV1 plasmids): 83.1% | viability at 24 h ([2]; AAV2 plasmids): 87.7% | viability at 48 h ([2]; AAV2 plasmids): 81.6% | viability at 72 h ([2]; AAV2 plasmids): 76% | viability at 24 h ([2]; LV plasmids): 92% | viability at 48 h ([2]; LV plasmids): 92% | Count [3, 4]: 3.63E+06 and 3.52E+06 | Via % [3, 4]: 88.2% | Count [3, 5]: 4.14E+06 and 3.39E+06 | Via % [3, 5]: 83.9% | Count [3, 6]: 5.82E+06 and 5.55E+06 | Via % [3, 6]: 82.5% | Count [3, 7]: 3.57E+06 and 3.37E+06 | Via % [3, 7]: 89.1% | Count [3, 8]: 3.81E+06 and 4.07E+06 | Via % [3, 8]: 84.8% | Via % ([3]; AAV2 plasmids, 72 h post-transf): 76.5% | Count ([3]; LV plasmids, 24 h post-transf): 2.31E+06 and 2.05E+06 | Via % ([3]; LV plasmids, 24 h post-transf): 92.7% | Count ([3]; LV plasmids, 48 h post-transf): 3.42E+06 and 2.83E+06 | Via % ([3]; LV plasmids, 48 h post-transf): 88.6% | Via % ([3]; LV plasmids, 72 h post-transf): 89.6% and 86%
